Test results taken from patent EP0360258B1, “Amino acid quinoline and naphthyridine derivatives” (ABBOTT LABORATORIES, priority 1988, dated 1990).
Converted amounts (≈) assume the structure as drawn. Counter-ions that a name gives are not always drawn. Like-named read-outs stand apart in the source and are kept apart here.

How the values were obtained:
Ps.Aeruginosa A5007 = experiment: Second in vitro antibacterial test, MIC (BHIB); format: cell-based; conditions: Brain Heart Infusion Broth (BHIB)
Stap. Aureus CMX 553 = experiment: Second in vitro antibacterial test, MIC (BHIB); format: cell-based; conditions: Brain Heart Infusion Broth (BHIB)
E.Coli Juhl = experiment: Second in vitro antibacterial test, MIC (BHIB); format: cell-based; conditions: Brain Heart Infusion Broth (BHIB)
Strep. pyogenes EES 61 = experiment: Second in vitro antibacterial test, MIC (BHIB); format: cell-based
[1] = Pseudomonas aeruginosa, read-out: MIC
[2] = Staphylococcus aureus, read-out: MIC
[3] = Escherichia coli, read-out: MIC
[4] = Streptococcus pyogenes, EES61, Brain Heart Infusion Broth (BHIB), read-out: MIC
[5] = Brain Heart Infusion Broth (BHIB)

CCC[C@H](NC(=O)CNC(=O)CN)C(=O)NC1CCN(c2nc3c(cc2F)c(=O)c(C(=O)O)cn3-c2ccc(F)cc2F)C1 (stereo partly drawn) [Example 30]
MIC (Ps.Aeruginosa A5007; [1]): > 100 µg/mL
MIC (Stap. Aureus CMX 553; [2]): 25 µg/mL (≈ 40.5 µM)
MIC (E.Coli Juhl; [3]): 25 µg/mL (≈ 40.5 µM)
MIC (Strep. pyogenes EES 61; [4]): 100 µg/mL (≈ 162 µM)

NC1CCN(c2nc3c(cc2F)c(=O)c(C(=O)O)cn3-c2ccc(F)cc2)C1 (stereo not drawn) [A, 7-(3-amino-1-pyrrolidinyl)-6-fluoro-1-(4-fluorophenyl)-1,4-dihydro-4-oxo-1,8-naphthyridine-3-carboxylic acid, reference compound]
solubility (physchem; pH 7.4): 14 µg/mL (≈ 36.2 µM)
solubility (physchem; water): 1400 µg/mL (≈ 3620 µM)

Cl.Cl.NCCCC[C@H](N)C(=O)NC1CCN(c2nc3c(cc2F)c(=O)c(C(=O)O)cn3-c2ccc(F)cc2F)C1 (stereo partly drawn) [Example 46, 7-(3-Lys-amino-1-pyrrolidinyl)-1-(2,4-difluorophenyl)-6-fluoro-1,4-dihydro-4-oxo-1,8-naphthyridine-3-carboxylic acid dihydrochloride]
MIC (Ps.Aeruginosa A5007): >100 µg/mL
MIC (Stap. Aureus CMX 553): 100 µg/mL
MIC (E.Coli Juhl): 3.12 µg/mL
MIC (Strep. pyogenes EES 61; [5]): 100 µg/mL

CC(C)C(N)C(=O)NC1CCN(c2nc3c(cc2F)c(=O)c(C(=O)O)cn3-c2ccc(F)cc2F)C1 (stereo not drawn) [Example 19]
solubility (physchem; pH 7.4): 410 µg/mL (≈ 814 µM)
solubility (physchem; water): > 10000 µg/mL

CSCC[C@H](NC(=O)[C@@H](N)CCSC)C(=O)NC1CCN(c2nc3c(cc2F)c(=O)c(C(=O)O)cn3-c2ccc(F)cc2F)C1 (stereo partly drawn) [Example 55o, 7-(3-Met-Met-amino-1-pyrrolidinyl)-6-fluoro-1-(2,4-difluorophenyl)-1,4-dihydro-4-oxo-1,8-naphthyridine-3-carboxylic acid]
solubility (physchem; pH 7.4): 310 µg/mL (≈ 465 µM)
solubility (physchem; water): 22000 µg/mL (≈ 33000 µM)

CCC[C@H](NC(=O)CN)C(=O)NC1CCN(c2nc3c(cc2F)c(=O)c(C(=O)O)cn3-c2ccc(F)cc2F)C1 (stereo partly drawn) [Example 52]
solubility (physchem; pH 7.4): 80 µg/mL (≈ 143 µM)
solubility (physchem; water): 6890 µg/mL (≈ 12300 µM)

CCCC(N)C(=O)NC1CCN(c2nc3c(cc2F)c(=O)c(C(=O)O)cn3C2CC2)C1 (stereo not drawn) [Example 26p]
MIC (Ps.Aeruginosa A5007): 1.56 µg/mL (≈ 3.62 µM)
MIC (Stap. Aureus CMX 553): 0.39 µg/mL (≈ 0.904 µM)
MIC (Strep. pyogenes EES 61; [5]): 3.1 µg/mL (≈ 7.18 µM)

CCCC(N)C(=O)NC1CCN(c2cc3c(cc2F)c(=O)c(C(=O)O)cn3-c2ccc(F)cc2F)C1 (stereo not drawn) [Example 26b]
MIC (Ps.Aeruginosa A5007): 6.2 µg/mL (≈ 12.3 µM)
MIC (Stap. Aureus CMX 553): 0.39 µg/mL (≈ 0.776 µM)
MIC (E.Coli Juhl): 0.78 µg/mL (≈ 1.55 µM)
MIC (Strep. pyogenes EES 61; [5]): 1.56 µg/mL (≈ 3.1 µM)

NCC(=O)NC1CCN(c2nc3c(cc2F)c(=O)c(C(=O)O)cn3-c2ccc(F)cc2F)C1 (stereo not drawn) [Example 7]
MIC (Ps.Aeruginosa A5007; [1]): 12.5 µg/mL (≈ 27.1 µM)
MIC (Stap. Aureus CMX 553; [2]): 1.56 µg/mL (≈ 3.38 µM)
MIC (E.Coli Juhl; [3]): 0.78 µg/mL (≈ 1.69 µM)
MIC (Strep. pyogenes EES 61; [4]): 0.78 µg/mL (≈ 1.69 µM)

Cl.NCC(=O)N[C@@H](Cc1ccccc1)C(=O)NC1CCN(c2cc3c(cc2F)c(=O)c(C(=O)O)cn3-c2ccc(F)cc2F)C1 (stereo partly drawn) [Example 26jj, 1-(2,4-Difluorophenyl)-6-Fluoro-7-(3-Gly-L-Phe -Amino-1-Pyrrolidinyl)-1,4-Dihydro-4-Oxo-Quinoline-3-Carboxylic Acid Hydrochloride]
MIC (Ps.Aeruginosa A5007): 64 µg/mL
MIC (Stap. Aureus CMX 553): 16 µg/mL
MIC (E.Coli Juhl): 16 µg/mL
MIC (Strep. pyogenes EES 61; [5]): 32 µg/mL

CC(C)CC(N)C(=O)NC1CCN(c2nc3c(cc2F)c(=O)c(C(=O)O)cn3C2CC2)C1 (stereo not drawn) [Example 26o]
MIC (Ps.Aeruginosa A5007): 1.56 µg/mL (≈ 3.5 µM)
MIC (Stap. Aureus CMX 553): 0.39 µg/mL (≈ 0.875 µM)
MIC (E.Coli Juhl): 0.2 µg/mL (≈ 0.449 µM)
MIC (Strep. pyogenes EES 61; [5]): 3.1 µg/mL (≈ 6.96 µM)

CC(N)C(=O)NC(Cc1ccccc1)C(=O)NC1CCN(c2nc3c(cc2F)c(=O)c(C(=O)O)cn3-c2ccc(F)cc2F)C1 (stereo not drawn) [Example 11]
MIC (Ps.Aeruginosa A5007; [1]): 128 µg/mL (≈ 206 µM)
solubility (physchem; pH 7.4): 590 µg/mL (≈ 948 µM)
solubility (physchem; water): > 20000 µg/mL
MIC (Stap. Aureus CMX 553; [2]): 16 µg/mL (≈ 25.7 µM)
MIC (E.Coli Juhl; [3]): 16 µg/mL (≈ 25.7 µM)

CSCC[C@H](NC(=O)[C@@H](N)CC(C)C)C(=O)NC1CCN(c2nc3c(cc2F)c(=O)c(C(=O)O)cn3-c2ccc(F)cc2F)C1 (stereo partly drawn) [Example 55p, 7-(3-Leu-Met-amino-1-pyrrolidinyl)-6-fluoro-1-(2,4-difluorophenyl)-1,4-dihydro-4-oxo-1,8-naphthyridine-3-carboxylic acid]
solubility (physchem; pH 7.4): 60 µg/mL (≈ 92.5 µM)
solubility (physchem; water): 23000 µg/mL (≈ 35500 µM)

CC(C)C[C@H](NC(=O)[C@@H](N)CC(C)C)C(=O)NC1CCN(c2nc3c(cc2F)c(=O)c(C(=O)O)cn3-c2ccc(F)cc2F)C1 (stereo partly drawn) [Example 55q, 7-(3-Leu-Leu-amino-1-pyrrolidinyl)-6-fluoro-1-(2,4-difluorophenyl)-1,4-dihydro-4-oxo-1,8-naphthyridine-3-carboxylic acid]
solubility (physchem; pH 7.4): 190 µg/mL (≈ 301 µM)
solubility (physchem; water): 19000 µg/mL (≈ 30100 µM)

N[C@@H](CC(=O)O)C(=O)NC1CCN(c2nc3c(cc2F)c(=O)c(C(=O)O)cn3-c2ccc(F)cc2F)C1 (stereo partly drawn) [Example 45, 7-(3-L-Asp-amino-1-pyrrolidinyl)-1-(2,4-difluorophenyl)-6-fluoro-1,4-dihydro-4-oxo-1,8-naphthyridine-3-carboxylic acid hydrochloride]
solubility (physchem; pH 7.4): 2400 µg/mL
solubility (physchem; water): 4100 µg/mL

CSCCC(N)C(=O)NC1CCN(c2nc3c(cc2F)c(=O)c(C(=O)O)cn3-c2ccc(F)cc2F)C1 (stereo not drawn) [Example 23]
MIC (Ps.Aeruginosa A5007; [1]): 5 µg/mL (≈ 9.34 µM)
MIC (Stap. Aureus CMX 553; [2]): 3.12 µg/mL (≈ 5.83 µM)
MIC (E.Coli Juhl; [3]): 3.12 µg/mL (≈ 5.83 µM)
MIC (Strep. pyogenes EES 61; [4]): 3.12 µg/mL (≈ 5.83 µM)

CCC[C@H](NC(=O)[C@H](C)N)C(=O)NC1CCN(c2nc3c(cc2F)c(=O)c(C(=O)O)cn3-c2ccc(F)cc2F)C1 (stereo partly drawn) [Example 55b, 7-(3-Ala-Nval-amino-1-pyrrolidinyl)-6-fluoro-1-(2,4-difluorophenyl)-1,4-dihydro-4-oxo-1,8-naphthyridine-3-carboxylic acid]
solubility (physchem; pH 7.4): 1030 µg/mL (≈ 1790 µM)
solubility (physchem; water): 26000 µg/mL (≈ 45300 µM)

NC(=O)C[C@H](N)C(=O)NC1CCN(c2nc3c(cc2F)c(=O)c(C(=O)O)cn3-c2ccc(F)cc2F)C1 (stereo partly drawn) [Example 41, 7-(3-L-Asparagine-amino-1-pyrrolidinyl)-1-(2,4-difluorophenyl)-6-fluoro-1,4-dihydro-4-oxo-1,8-naphthyridine-3-carboxylic acid hydrochloride]
solubility (physchem; pH 7.4): 400 µg/mL
solubility (physchem; water): > 35000 µg/mL

CCC[C@H](N)C(=O)NC1CCN(c2nc3c(cc2F)c(=O)c(C(=O)O)cn3CC)C1 (stereo partly drawn) [Example 26ff]
MIC (Ps.Aeruginosa A5007): 12.5 µg/mL (≈ 29.8 µM)
MIC (Stap. Aureus CMX 553): 1.56 µg/mL (≈ 3.72 µM)
MIC (E.Coli Juhl): 1.56 µg/mL (≈ 3.72 µM)
MIC (Strep. pyogenes EES 61; [5]): 6.2 µg/mL (≈ 14.8 µM)

O=C(O)c1cn(-c2ccc(F)cc2F)c2nc(N3CCC(NC(=O)C4CCCN4)C3)c(F)cc2c1=O (stereo not drawn) [Example 28]
MIC (Ps.Aeruginosa A5007; [1]): 12.5 µg/mL (≈ 24.9 µM)
MIC (Stap. Aureus CMX 553; [2]): 1.56 µg/mL (≈ 3.11 µM)
MIC (E.Coli Juhl; [3]): 1.56 µg/mL (≈ 3.11 µM)
MIC (Strep. pyogenes EES 61; [4]): 1.56 µg/mL (≈ 3.11 µM)

CCCC(N)C(=O)NC1CCN(c2cc3c(cc2F)c(=O)c(C(=O)O)cn3-c2ccc(F)cc2)C1 (stereo not drawn) [Example 26h]
MIC (Ps.Aeruginosa A5007): 6.2 µg/mL (≈ 12.8 µM)
MIC (Stap. Aureus CMX 553): 0.78 µg/mL (≈ 1.61 µM)
MIC (E.Coli Juhl): 0.78 µg/mL (≈ 1.61 µM)
MIC (Strep. pyogenes EES 61; [5]): 1.56 µg/mL (≈ 3.22 µM)

CC(C)C[C@H](NC(=O)[C@H](C)N)C(=O)NC1CCN(c2nc3c(cc2F)c(=O)c(C(=O)O)cn3-c2ccc(F)cc2F)C1 (stereo partly drawn) [Example 55r, 7-(3-Ala-Leu-amino-1-pyrrolidinyl)-6-fluoro-1-(2,4-difluorophenyl)-1,4-dihydro-4-oxo-1,8-naphthyridine-3-carboxylic acid]
solubility (physchem; pH 7.4): 2000 µg/mL (≈ 3400 µM)
solubility (physchem; water): 26000 µg/mL (≈ 44200 µM)

CC(N)C(=O)NC1CCN(c2nc3c(cc2F)c(=O)c(C(=O)O)cn3-c2ccc(F)cc2F)C1 (stereo not drawn) [Example 17]
MIC (Ps.Aeruginosa A5007; [1]): 16 µg/mL (≈ 33.7 µM)
solubility (physchem; pH 7.4): 120 µg/mL (≈ 252 µM)
solubility (physchem; water): > 20000 µg/mL
MIC (Stap. Aureus CMX 553; [2]): 2 µg/mL (≈ 4.21 µM)
MIC (E.Coli Juhl; [3]): 0.5 µg/mL (≈ 1.05 µM)

CSCC[C@H](NC(=O)[C@H](C)N)C(=O)NC1CCN(c2nc3c(cc2F)c(=O)c(C(=O)O)cn3-c2ccc(F)cc2F)C1 (stereo partly drawn) [Example 55n, 7-(3-Ala-Met-amino-1-pyrrolidinyl)-6-fluoro-1-(2,4-difluorophenyl)-1,4-dihydro-4-oxo-1,8-naphthyridine-3-carboxylic acid]
solubility (physchem; pH 7.4): 2500 µg/mL (≈ 4120 µM)
solubility (physchem; water): 20000 µg/mL (≈ 33000 µM)
